# In US5049372A, “Anticancer activities in a host by increasing blood and plasma adenosine 5'-triphosphate (ATP) levels” (priority 1988, dated 1991):
# Columns and labels:
# Assay type in all cases: in vivo, mouse
# [1] = Inhibition of host weight loss (cancer cachexia) in CT26 tumor-bearing mice; conditions: FIG. 3; treatment initiated day 1 (A), day 5 (B) or day 9 (C)
# Experimental: (§1) A further series of tests are conducted whereby tumors are inoculated by injections of 2.5×10^5 CT26 cells (over 90% viability) in 50 μl of phosphate-buffered saline into the right hind footpad of CB6F1 mice. The treatments were initiated at a variety of times after inoculation of the tumors. The injection schedules started either 1 or 5 days after tumor inoculation when none of the tumors are palpable or when the tumors are clearly palpable (average calculated weight of 100 mg), which occur in 100% of the inoculated mice after 8-11 days. Mice are randomized, divided into groups, and injected daily with 2.2 ml of saline, adenosine, AMP, or ATP (compounds are in sterile saline solutions at concentrations of 25 mM with AMP and ATP solutions adjusted to pH 6.2). Injections are administered intraperitoneally with 30 gauge needles and the mice are lightly anesthetized with […]. The mice are weighed and tumor sizes measured before the start of the treatment schedule and every three days during and after the treatment schedule. These determinations are performed before injections during the treatment period.
# (§2) In particular, see FIG. 2. FIG. 2 illustrates inhibition of tumor growth (---) and host weight loss (-) in tumor-bearing mice by treatment with adenine nucleotides. Mice (CB6F1, 8 week old males) bearing palpable CT26 footpad tumors (on day 9 after tumor inoculation) are treated with saline (.smallcircle.), adenosine (o), AMP (Δ), or ATP (.quadrature.) as described herein. An untreated group is also included (x). Arrows indicate days of injection.
# (§3) FIG. 3 further illustrates inhibition of host weight loss in tumor-bearing animals by treatment with adenine nucleotides. Mice (CB6F1, males, 7 weeks old, in A, 10 weeks old in B, C) are inoculated with CT26 tumors and daily treatments (for 10 consecutive days) with saline (.smallcircle.), adenosine (o), AMP (Δ), or ATP (.quadrature.) are initiated 1 day (A), 5 days (B), or 9 days after tumor inoculation (when all the tumors were palpable) (C). Arrows indicate days of injection. Experimental procedures were outlined in the text.
# [2] = test system: CT26 tumors; assay: Arrest of growth of CT26 tumors in CB6F1 mice (Table 2); conditions: experiment 1; CB6F1, 10 F; 0.5 × 10^4 cells; 5 weeks; 1 ml of 50 mM i.p.
# Experimental: The tumor cell lines employed were CT26, a mouse undifferentiated, aggressive colon carcinoma, and CAPAN-1, a well-differentiated human pancreatic adenocarcinoma. […] The cells are shown to be free of Mycoplasma contamination. Cells are cultured at 37° C. in a humidified atmosphere of 5% CO2 /95% air in MEM supplemented with antibiotics (100 units of penicillin per ml and 100 μg streptomycin per ml), L-glutamine (2 mM), non-essential amino acids (0.1 mM), sodium pyruvate (1 mM), and 10% fetal bovine serum.
# In the tests, females and males CB6F1 mice (a standard F1 hybrid of BALB/C and C57BL/6) obtained from Jackson Laboratories, Bar Harbor, Maine and athymic outbred NCr nu/nu mice (males and females) from the Department of Radiation Medicine, Massachusetts General Hospital, Boston, Mass. 02114 are used. All the mice are kept for at least two weeks before inoculation of the tumors and the start of treatment and are 7-9 weeks old (CB6F1) or 6-7 weeks old (athymic nu/nu) at the start of the procedure. Animals weigh 20-25 g (females) or 23-28 g (males), are housed 5-12 per cage, and have ad libitum access to food and water. […]
# Injections are administered with 30 gauge needles and the mice are lightly anesthetized with ether. […] After the tumors become palpable, tumor sizes are determined every three days. […]
# [3] = test system: CT26 colon adenocarcinoma; assay: Growth inhibition of footpad CT26 colon adenocarcinoma in CB6F1 mice, second series (FIGS. 2 and 3); conditions: for Inhibition of tumor growth, schedule ending before inoculation: 12 consecutive days, ending one day before tumor inoculation; for Anticancer activities against established footpad CT26 colon adenocarcinoma: CB6F1 mice, in words; for Deaths before stated day after tumor inoculation: FIG. 2 experiment, palpable CT26 tumors, 10 animals per group; for Inhibition of growth of palpable CT26 tumors (in words): daily i.p. in 2.2 ml saline, pH 6.2, 12 days, starting after tumors palpable, equimolar amounts
# Experimental: as §1, §2
# The magnitude of the antitumor activities of AMP and ATP depends to a small extent on the pH of the solution administered intraperitoneally. This property is probably related to the number of negative charges on the phosphate groups (the pKa of the secondary phosphate is around 6.6). AMP and especially ATP have some buffering capacity, and at a pH below 6.6 they carry a smaller net charge than at a physiological pH. The lower charge of these molecules enhances the initial (first hour) transport of AMP and ATP across the peritoneal membrane and into the systemic circulation (see Torres, et al., 1978, Pharmacol., 17, 330-340). […] The treatment schedule of palpable CT26 tumors which is illustrated in FIG. 2 consistently yields 10-20% of "cures". These mice remain tumor-free for at least two months.
# as §3, with “[…])” for “C) are inoculated with CT26 tumors and daily treatments (for 10 consecutive days)”
Compound,Deaths before stated day after tumor inoculation [1],Arrested tumors/implanted tumors [2],"Inhibition of tumor growth, schedule ending before inoculation [3]",Anticancer activities against established footpad CT26 colon adenocarcinoma [3],Deaths before stated day after tumor inoculation [3],Inhibition of growth of palpable CT26 tumors (in words) [3],Inhibition of tumor growth relative to ATP ([3]; treatment initiated one day after tumor inoculation),"Inhibition of tumor growth, palpable tumors, relative to AMP ([3]; applied to palpable tumors (FIG. 2))"
"Nc1ncnc2c1ncn2[C@@H]1O[C@H](COP(=O)(O)O)[C@@H](O)[C@H]1O [AMP, adenosine 5'-monophosphate]","No deaths occurred before day 19 (A) or day 25 (B,C)",2/10,No inhibition of tumor growth,exhibit significant anticancer activities,No deaths occurred before day 22,significantly inhibit the growth of this fast-growing tumor,as effective as ATP in inhibiting tumor growth,
"Nc1ncnc2c1ncn2[C@@H]1O[C@H](COP(=O)(O)OP(=O)(O)OP(=O)(O)O)[C@@H](O)[C@H]1O [ATP, adenosine 5'-triphosphate]","No deaths occurred before day 19 (A) or day 25 (B,C)",4/10,No inhibition of tumor growth,exhibit significant anticancer activities,No deaths occurred before day 22,significantly inhibit the growth of this fast-growing tumor,,more pronounced than that obtained with AMP
